According to US20250091911A1, “NANOFILTRATION SYSTEM AND METHOD INCLUDING PRETREATMENT WITH GREEN SORPTION MEDIA” (University of Central Florida Research Foundation, Inc., priority 2023, published 2025):

Experiments:
[1] = Fixed-bed column pretreatment of spiked C-23 canal water with CPS; details: for Removal via column C3: CPS column 3, 9 h; for Removal via column C1 / Removal via column C2 / average removal percentage by media: CPS; for Removal via column C1 / Removal via column C2: 9 h; for average removal percentage by media: triplicate columns
Description: (§1) The water samples were collected from the same site of the C-23 canal during both the dry and wet seasons. However, only wet season water samples were used in the experiment. The water samples were analyzed for both long-chain (PFOA and PFOS) and short-chain (Perfluorobutanoic acid [PFBA] and Perfluorobutanesulfonic acid [PFBS]) PFAS following the modified EPA 537.1 method (Shoemaker & Tettenhorst, 2020). Through this method, an aliquot of a 250 mL water sample containing analytes and internal standards is extracted via solid phase extraction. The extracted analytes and internal standards are then eluted with methanol and ammonium hydroxide in methanol solvent. Then the eluted samples are dried with nitrogen and reconstituted to 1 mL volume with a buffer solution. The samples are then injected into a C18 liquid chromatography column, and the PFAS compounds are separated by a gradient of pure methanol and 20 mM ammonium acetate. Finally, the eluted compounds are detected, and their concentrations are measured via tandem mass spectrometry. The method detection limits (MDLs) for PFBA, PFBS, PFOA, and PFOS were 0.5 ng·L^−1, 2 ng·L^−1, 0.5 ng·L^−1, and 1 ng·L^−1, respectively. The concentration of calcium ion (Ca^2+) was analyzed at Eurofins Flowers's Chemical Laboratories (Altamonte Springs, Florida) following EPA method 6010D using inductively coupled plasma optical emission spectroscopy (MDL=0.096 mg·L^−1). Total organic carbon (TOC) and dissolved organic carbon (DOC) were measured using a TOC analyzer following EPA method 415.3.
(§2) Water samples collected from the C-23 canal were first fortified with PFOS and PFOA and then used as influents to the pretreatment column containing one of the two green sorption media. Note the water samples were not fortified with PFBA and PFBS. The green sorption media effluent served as the feedwater for the nanofiltration unit of the proposed water treatment system. The nanofiltration membrane unit without any green sorption media-based pretreatment served as the “control.” The integration of a green sorption media (CPS or ZIPGEM) with crossflow nanofiltration is herein referred to as a water treatment system, denoted as CPS-nanofiltration or ZIPGEM-nanofiltration. The CPS and ZIPGEM column influents and effluents and nanofiltration permeates were analyzed for both long-chain (PFOS and PFOA) and short-chain (PFBS and PFBA) PFAS. FIG. 3 presents the green sorption media-nanofiltration hybrid treatment scheme.
(§3) C-23 canal water was stored in a walk-in refrigerator at […] after collection. For the pretreatment experiment, a total of 60 L of water was used as influents to the CPS and ZIPGEM columns. Although the raw water was spiked with 70 ng·L^−1 of PFOA and PFOS each, the short-chain PFAS (PFBA, PFBS) were at their indigenous concentrations. A peristaltic pump was used to deliver the water to the columns at a constant flowrate of 14 ml·min^−1. Three columns (triplicate) with 3 ft length and 4-inch diameter containing 2,600 ml of media were set up for each media, and all samples were analyzed in triplicate (FIG. 4). The fixed-bed column experiments were run for more than 48 h, and effluents were taken at different time intervals to be used as feedwaters for the nanofiltration treatment that followed. […] At least 5 L of column effluent were collected to be used as the nanofiltration feed, and the stated effluent at 9 h for CPS was collected from 0 h until 9 h, whereas effluent at 30 h for ZIPGEM was collected from 9 h until 30 h. The collected effluents from the column study were stored in a refrigerator until they were used for the nanofiltration experiment. FIG. 4 illustrates the experimental setup for the pretreatment CPS and ZIPGEM process.
(§4) The average removal efficiencies of each media pretreatment were calculated based on PFAS concentrations in the influents and effluents of triplicate columns, as disclosed in TABLE 5. […]

[2] = Fixed-bed column pretreatment of spiked C-23 canal water with ZIPGEM; details: for Removal via column C1: ZIPGEM column 1, 30 h; for Removal via column C2: ZIPGEM column 2, 30 h; for Removal via column C3 / average removal percentage by media: ZIPGEM; for Removal via column C3: 30 h; for average removal percentage by media: triplicate columns
Description: as §1, §2, §3, §4

SMILES	Removal via column C3 [1]	Removal via column C1 [1]	Removal via column C2 [1]	average removal percentage by media [1]	Removal via column C1 [2]	Removal via column C2 [2]	Removal via column C3 [2]	average removal percentage by media [2]
O=C(O)C(F)(F)C(F)(F)C(F)(F)F [PFBA, Perfluorobutanoic acid]	29%	21%	24%	25	5%	5%	8%	6
O=S(=O)(O)C(F)(F)C(F)(F)C(F)(F)C(F)(F)F [PFBS, Perfluorobutanesulfonic acid]	25%	20%	27%	24	6%	5%	−1%	3.3
O=C(O)C(F)(F)C(F)(F)C(F)(F)C(F)(F)C(F)(F)C(F)(F)C(F)(F)F [PFOA, Perfluorooctanoic acid]	88%	96%	85%	90	19%	19%	4%	14
O=S(=O)(O)C(F)(F)C(F)(F)C(F)(F)C(F)(F)C(F)(F)C(F)(F)C(F)(F)C(F)(F)F [PFOS, Perfluorooctanesulfonic acid]	100%	100%	100%	100	100%	100%	100%	100
